Data on 11 compounds can be found in US6713051B2, “Antiperspirant or deodorant compositions” (Unilever Home & Personal Care USA division of Conopco, Inc., priority 2001, dated 2004).

Common to all, as to format: cell-based
The subject of one test is interleukin-6 (IL-6). In words: Skin organotypic culture analysis: AP-induced IL-6 release into the medium. As to conditions: for IL-6: 24 h, Nil 51.7, AP 118.8. As to the method:
The cultures were then incubated at 37° C., 5% CO2, and 95% relative humidity (standard cell culture conditions) for 24 h. The culture medium was assayed for the pro-inflammatory cytokine interleukin-6 (IL-6) and after washing to remove the AP formulation, the viability of the culture was determined using the Thiazoyl blue (MTT) assay (Mosmann, T. J. Immunol. Methods 65, p55 (1983). IL-6 was determined using an Immunoassay (Quantikine, R&D systems).
In this Example, skin organotypic cultures (Epiderm™, MatTek, USA) were treated topically with the above-identified AP formulation and the trans-10-cis-12 conjugated linoleic acid (TC CLA) was introduced into the medium. The cultures were then incubated at 37° C., 5% CO2, and 95% relative humidity (standard cell culture conditions) for 24 h. The culture medium was assayed for the pro-inflammatory cytokine interleukin-6 (IL-6) and after washing to remove the AP formulation, the viability of the culture was determined by the method described in Example 2.
The cultures were then incubated at 37° C., 5% CO2, and 95% relative humidity (standard cell culture conditions) for 24 hours. The culture medium was assayed for the pro-inflammatory cytokine interleukin-6 (IL-6) and after washing to remove the AP formulation, the viability of the culture was determined using the MTT assay. IL-6 was determined using an ELISA assay (R&D systems).

In another test the target is T1, human PPARα (Homo sapiens, UniProt Q07869).
T1 construct: The coding region of a human PPARα cDNA was inserted downstream of the CMV promoter; expressed in transfected cells; host or cells: Cos-7 cells, transient transfection (pcDNA3.1(−)-PPARα, pRSV-RXRα, 3xPPRE-TK-luc reporter, pRL-TK)
T1 sequence (Q07869 1-468): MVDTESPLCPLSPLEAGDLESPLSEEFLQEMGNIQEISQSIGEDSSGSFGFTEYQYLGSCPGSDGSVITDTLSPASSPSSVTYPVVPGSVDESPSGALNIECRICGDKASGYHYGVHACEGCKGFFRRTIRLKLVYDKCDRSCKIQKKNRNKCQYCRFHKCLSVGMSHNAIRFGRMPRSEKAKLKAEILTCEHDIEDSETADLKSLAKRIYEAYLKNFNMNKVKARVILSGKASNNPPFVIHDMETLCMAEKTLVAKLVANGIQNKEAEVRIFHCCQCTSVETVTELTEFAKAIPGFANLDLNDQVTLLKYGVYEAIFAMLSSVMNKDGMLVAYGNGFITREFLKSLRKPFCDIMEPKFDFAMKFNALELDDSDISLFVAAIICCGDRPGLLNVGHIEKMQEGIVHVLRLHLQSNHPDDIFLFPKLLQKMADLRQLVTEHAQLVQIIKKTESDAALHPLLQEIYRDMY
T1 sequence (P19793 1-462 partner): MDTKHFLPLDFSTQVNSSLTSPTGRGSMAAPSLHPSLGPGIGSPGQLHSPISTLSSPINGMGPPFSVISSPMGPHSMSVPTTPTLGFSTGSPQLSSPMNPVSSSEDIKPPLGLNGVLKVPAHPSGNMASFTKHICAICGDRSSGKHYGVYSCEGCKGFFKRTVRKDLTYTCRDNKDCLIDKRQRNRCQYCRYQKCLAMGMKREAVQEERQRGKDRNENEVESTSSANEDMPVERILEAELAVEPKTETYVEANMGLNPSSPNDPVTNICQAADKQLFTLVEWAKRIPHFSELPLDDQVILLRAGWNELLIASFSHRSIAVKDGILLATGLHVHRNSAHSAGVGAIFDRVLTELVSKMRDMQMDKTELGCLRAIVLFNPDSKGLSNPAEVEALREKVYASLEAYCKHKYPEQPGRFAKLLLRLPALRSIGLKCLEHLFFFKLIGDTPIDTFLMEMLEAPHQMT
Put plainly: PPARα reporter gene assay (firefly luciferase, transiently transfected Cos-7 cells). As to conditions: for Result (superior activity class achieved): class reached; for Pass at (lowest tested administration level at which the test material passed): pass = activation greater than oleic acid at 100 μM, commonly >1.57 times vehicle control, 24 h treatment. The text has this: One convenient reporter assay for determining whether a fatty acid material is PPARα activating is based upon the firefly luciferase gene.
Fatty acids were screened to identify PPAR activating fatty acids using a reporter assay.
This assay relied on ligands binding to and activating the PPARα protein, which, in turn, activated genes under the control of PPAR response elements (PPRE). In the assay, the firefly luciferase gene was cloned behind a promoter containing 3 copies of the fatty acid binding protein PPRE.
The assay was performed by transient transfection of Cos-7 cells with a mixture of four DNA plasmids. These were:
1) PPAR reporter gene construct (Modified pNF-KB-luc reporter vector (Firefly luciferase reporter vector commercially available form Clontech (NF-kB response element, TK minimal promoter, luc^+, f1 origin, pUC origin, amp^r)). A tandem repeat of 3 PPAR response elements (PPREs) corresponding to the PPRE found in the fatty acid binding protein promoter was inserted upstream of the minimal TK promoter to replace the NF-κB response element);
2) 2) Over-expressing PPARα construct (Modified pcDNA3.1(−) vector (A mammalian expression vector commercially available from Invitrogen (CMV promoter, f1 origin, SV40 origin, ColE1 origin, neo^r, amp^r)). The coding region of a human PPARα cDNA was inserted downstream of the CMV promoter of pcDNA3.1 (−)). […] The coding region of a human RXRα cDNA has been inserted downstream of the RSV promoter. (Gift of V. K. K. Chatterjee, Addenbrooke's Hospital, Cambridge)) 4) Control luciferase construct (pRL-TK Renilla luciferase reporter vector commercially available from Promega (HSV-TK promoter, T7 promoter, Rluc^+, ori, amp^r)). For the transfection, DNA was made up as a mix of PPAR reporter gene: PPARα: RXRα: control in the ratio 40:4:3:3.
Cos-7 cells were grown in Dulbecco's modified Eagle's Medium, also herein referred to as DMEM with 10% foetal calf serum, herein also referred to as FCS at 37° C., 5% CO2 to 80% confluency. Cells were then plated out in 24 well plates at 50,000 cells per well and incubated overnight in DMEM with 10% FCS at 37° C., 5% CO2. Cells were then transfected using the LipofectAMINE reagent (GibcoBRL). For each well 0.4 μg of DNA mix (in 25 μl of DMEM) was incubated with 1 μl LipofectAMINE (in 25 μl of DMEM) for 45 minutes. The mixture was then made up to 250 μl per well and added to the cells, which had been washed with 1 ml of DMEM. Cells were then incubated for 5 hours at 37° C., 5% CO2 and 250 μl DMEM with 10% SBCS (charcoal stripped bovine calf serum) added. Cells were incubated for 18 hours at 37° C., 5% CO2 before being treated with the appropriate compound/extract. Test compounds were made up as 1000× stocks (in DMSO or ethanol as appropriate) and diluted into DMEM with 10% SBCS (500 μl per well) immediately before being added to cells. Each treatment was performed in triplicate. The transfection mix was removed from the cells and replaced with the treatment mix, and incubated for 24 hours at 37° C., 5% CO2. Cells were washed with 1 ml of PBS (without calcium or magnesium) and then lysed with 100 μl per well of 1× Passive Lysis Buffer (as supplied with Promega Dual Luciferase assay kit). Lysis was allowed to continue for 15 minutes and then the lysate was assayed for Firefly and Renilla luciferase activity using the Promega Dual Luciferase assay kit. For the assay, 20 μl of lysate was taken and assayed as described in the kit instructions using a MLX microtiter™ plate luminometer (Dynex).
Firefly luciferase activity (PPAR driven) was normalised against the Renilla luciferase value for that well and the mean calculated for the three wells treated with the same agent. Activity was then expressed as fold activation over the vehicle (DMSO or ethanol) control values for that particular plate.
In general terms: A reporter such as luciferase makes a cellular process visible.

In test [1] the test system is Human foreskin keratinocytes. Put plainly: Keratinocyte proliferation analysis (DNA content per well, Pico Green). Conditions: for DNA: 4 days, control (0 μM) 14.46. Here is the method: (§1) Human foreskin keratinocytes (passage 3) were seeded at 4000 cells/well in 96 well plates in Keratinocyte Growth Medium (abbreviated to KGM) containing 0.03 mM calcium and grown for 3 days at 37° C. The cells were then treated with PPAR ligands in KGM containing 0.03 mM calcium for 4 days prior to harvest. Stock solutions of PPAR ligands were dissolved in dimethylsulphoxide (DMSO) and diluted in KGM before adding to the cells. […] The harvested cells were washed 3× in phosphate buffered saline (PBS) and extracted in 1% Triton X100, 50 mM (tris[hydroxymethyl]aminomethane) (Tris) pH 8.0 plus protease inhibitors pepstatin and leupeptin (100 μl/well). The extract was assayed for DNA content using the Pico Green DNA assay (Molecular Probes, Inc.).
Cultured keratinocytes were treated with cis-9-trans-11 conjugated linoleic acid (CT-CLA) for 4 days. The cells were extracted with Tris-1% Triton X100 and the DNA content per well was determine by the Pico Green assay in accordance with the above described procedure.

Test [2] relates to Human foreskin keratinocytes. Put plainly: Keratinocyte cornified envelope assay. Conditions: for Cornified envelopes assay: 4 days, control (0 μM) 22831. As to the method: as §1
After Tris-triton extraction for TGase assay, the cells were extracted with 100 μl/well of 2% SDS, 20 mM DTT for 16 hours at 60° C. Once extracted the SDS suspension from each well was individually filtered through polyviylidenefluoride (PVDF) membrane (Immobilon-P™ Transfer Membrane, Millipore) which had been pre-blocked in Tris Buffered Saline (TBS) containing 0.5% (v/v) Tween 20, 0.5% using a Dot Blot TM Apparatus (Bio-Rad). Each sample was washed several times with TBS/Tween buffer before the membrane was removed from the apparatus, rinsed in distilled water and silver stained using silver stain kit (Bio-Rad). The stained dot blot membrane was scanned and analysed using Phoretix Array™ software.
Cultured keratinocytes were treated with pinoleic acid for 4 days. The cells were extracted with 2% SDS, 20 mM DTT and the cornified envelopes were quantified, after filtration using a PDVF membrane, by silver staining, as described above.

`CCCCC/C=C\C=C\CCCCCCCCC(=O)O` [CLA (t10, c12), trans-10-cis-12 conjugated linoleic acid]: the “AP-induced IL-6 release” value in the test on interleukin-6 (IL-6) (5 and 500 μM, Dunnet's test p<0.01) was “significantly decrease”. Also, the IL-6 with interleukin-6 (IL-6) (Table 5: 5 μM in medium + AP) came to 59.6 pg/mL. For the same compound, in the test on interleukin-6 (IL-6) (Table 5: 500 μM in medium + AP), the IL-6 came to 57.1 pg/mL. For the same compound, on human PPARα, the “Result at (lowest administration level at which super or MS activity was achieved)” value was 100 μm, the “Result (superior activity class achieved)” value was “super (superior activity [super] (50% higher—at least 2.25 times PPARα activation))” and the “Pass at (lowest tested administration level at which the test material passed)” value (from here on “Pass”) worked out at 50 μm.
As to `CCCCC/C=C\C/C=C\CC/C=C\CCCC(=O)O` [Pinolenic acid, pinolenic acid], in test [1] (Example 11: 10 μM, 1 way ANOVA, p<0.05), the “keratinocyte DNA synthesis activity, statement” value is listed as “significantly reduce”. For the same compound, the DNA is 13.41 ng/well in test [1] (Table 12: 0.1 μM), 12.95 ng/well in test [1] (Table 12: 1 μM) and 12.63 ng/well in test [1] (Table 12: 10 μM). Moreover, on human PPARα, the “Pass” value was found to be 10 μm. Further, in test [2] (Example 8: 10 μM, 1 way ANOVA, p<0.05), the “cornified envelope formation, statement” value is recorded as “significantly increase”. Also, the Cornified envelopes assay in test [2] (Table 9: 0.1 μM) turned out to be 18828 arb. Units; in test [2] (Table 9: 1 μM) it was 24860 arb. Units; in test [2] (Table 9: 10 μM), 36579 arb. Units.
For `CCCCCC=CCC=CC/C=C\CCCCCCC(=O)O` [cis-8,11,14 eicosatrienoic acid], on human PPARα, the “Result at (lowest administration level at which super or MS activity was achieved)” value worked out at 100 μm, the “Result (superior activity class achieved)” value is “super (superior activity [super] (50% higher—at least 2.25 times PPARα activation))” and the “Pass” value is given as 100 μm.
Regarding `CCCCCCCC/C=C\CCCCCCCCCC(=O)O` [cis-11 eicosenoic acid], the “Pass” value at human PPARα came out at 100 μm.
Regarding `CCC=CCC=CC/C=C\CCCCCCCCCC(=O)O` [cis-11,14,17 eicosatrienoic acid], on human PPARα, the “Result at (lowest administration level at which super or MS activity was achieved)” value is recorded as 100 μm, the “Result (superior activity class achieved)” value is “MS (more superior activity [MS] (100% higher—at least 3 times PPARα activation))” and the “Pass” value amounted to 100 μm.
Turning to `CCCCCC=CC/C=C\CCCCCCCCCC(=O)O` [cis-11,14-eicosadienoic acid], on human PPARα, the “Result at (lowest administration level at which super or MS activity was achieved)” value is listed as 100 μm, the “Result (superior activity class achieved)” value is “MS (more superior activity [MS] (100% higher—at least 3 times PPARα activation))” and the “Pass” value turned out to be 10 μm.
For `CCC=CCC=CC/C=C\CCCCCCCCCCCC(=O)O` [cis-13,16,19 docosatrienoic acid], on human PPARα, the “Pass” value was 100 μm.
Still for that read-out and setting: the figure for `CCCC/C=C\CCCCCCCCCCCC(=O)O` [cis-13-octadecenoic acid] is 50 μm.
Same read-out and setting: the figure for `CC/C=C\CCCCCCCCCCCCCC(=O)O` [cis-15-octadecanoic acid] is 100 μm; for `CCCCCC/C=C/CCCCCCCCCC(=O)O` [trans vaccenic acid] it is 10 μm.
Consider `CCCCC/C=C/CCCCCCCCCCC(=O)O` [trans-12-octadecenoic acid], for which the “Pass” value on human PPARα is given as 100 μm.
